“And” between values parts separate entries of the source, which are not always exact repeats. Equal values may be shown once. Where a name gives a salt, the structure may show the parent alone.
Tests used:
HTT = experiment: Protein abundance, HiBit-assay system (Promega), HTT; assay type: cell-based; settings: Table 6; HiBiT-modified K562 cells, 24 hours
From the text: (§1) In some embodiments, a compound of Formula (I) or (II) or a pharmaceutically acceptable salt thereof, e.g., as described herein, modulates the expression of a target protein (e.g., HTT or MYB) in a reference cell or sample. In an embodiment, a compound of Formula (I) or (II) or a pharmaceutically acceptable salt thereof, e.g., as described herein, increases the expression of a target protein (e.g., HTT or MYB) in a reference cell or sample. In an embodiment, a compound of Formula (I) or (II) or a pharmaceutically acceptable salt thereof, e.g., as described herein, decreases the expression of a target protein (e.g., HTT or MYB) in a reference cell or sample. The effect of an exemplary compound of Formula (I) or (II) on protein abundance may be measured using a standard assay for measuring protein abundance, such as the HiBit-assay system (Promega). In this assay, percent response for each respective cell line may be as calculated at each compound concentration as follows: % response=100*(S−PC)/(NC−PC). For the normalized response at each concentration, a four-parameter logistical regression may be fit to the data and the response may be interpolated at the 50% value to determine a concentration for protein abundance at 50% (IC50) an untreated control. In an embodiment, a compound of Formula (I) or (II) or a pharmaceutically acceptable salt thereof, e.g., as described herein, has a protein abundance response less than 100 nM. In an embodiment, a compound of Formula (I) or (II) or a pharmaceutically acceptable salt thereof, e.g., as described herein, has a protein abundance response between 100-1000 nM. In an embodiment, a compound of Formula (I) or (II) or a pharmaceutically acceptable salt thereof, e.g., as described herein, has a protein abundance response greater than 1000 nM. In an embodiment, a compound of Formula (I) or (II) or a pharmaceutically acceptable salt thereof, e.g., as described herein, has a protein abundance response greater than 10 uM. In an embodiment, a compound of Formula (I) or (II) or a pharmaceutically acceptable salt thereof, e.g., as described herein, modulates the protein abundance of a target protein by about 1%, 5%, 10%, 15%, 20%, 25%, 30%, 35%, 40%, 45%, 50%, 55%, 60%, 65%, 70%, 75%, 80%, 85%, 90%, 95%, 99% or more, e.g., compared with a reference compound.

MYB = experiment: Protein abundance, HiBit-assay system (Promega), MYB; assay type: cell-based; settings: Table 6; HiBiT-modified K562 cells, 24 hours
From the text: as §1

HTT mRNA = experiment: Splicing RT-qPCR assay, HTT canonical (CJ) and alternative (AJ) junction mRNA; assay type: cell-based, human; settings: Homo sapiens, A673 or K562 cells, 24 hours compound treatment; for IC50: 24 h, read-out: HTT CJ (IC50, decrease in canonical junction mRNA); for AC50: read-out: HTT AJ (AC50, increase in alternative junction mRNA)
Summary of the method: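 Read-out is the abundance of canonical-junction versus new alternative-exon-junction mRNA, determined by real-time qPCR after cDNA synthesis and normalized to a housekeeping gene. It is measured in A673 or K562 cells exposed to compounds for 24 h, top dose 10 uM.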

Structure (SMILES)	IC50 (HTT) [nM]	IC50 (MYB)	IC50 (HTT mRNA) [nM]	AC50 (HTT mRNA) [nM]
Cc1cn2cc(NC(=O)c3ccc(N4CCNCC4)c4cc(C)oc34)cc(F)c2n1 [Compound 142]	100 to 1000	< 100 nM	1000 to 10000	1000 to 10000
Cc1cn2cc(NC(=O)c3ccc(N4CCNC5(CC5)C4)c4cc(C)oc34)cc(F)c2n1 [Compound 194]	1000 to 10000	100 to 1000 nM	–	–
Cc1cn2cc(NC(=O)c3ccc(N4CC[C@@H](NC56CC(C5)C6)C4)c4cn(C)nc34)cc(F)c2n1 [Compound 568, 4-[(3R)-3-{bicyclo[1.1.1]pentan-1-ylamino}pyrrolidin-1-yl]-N-{8-fluoro-2-methylimidazo[1,2-a]pyridin-6-yl}-2-methylindazole-7-carboxamide]	1000 to 10000	1000 to 10000 nM	1000 to 10000	1000 to 10000
CCn1cc2c(N3CCNCC3)ccc(C(=O)Nc3cc(F)c4ncccc4c3)c2n1 [Compound 575]	1000 to 10000	1000 to 10000 nM	> 10000	> 10000
Cc1cn2cc(NC(=O)c3ccc(N4CCNC(C)(C)C4)c4cc(C)oc34)cc(F)c2n1 [Compound 193]	1000 to 10000	100 to 1000 nM	1000 to 10000	1000 to 10000
Cc1cc2c(N3CCNCC3)ccc(C(=O)Nc3cc(F)c4cn(C)nc4c3)c2o1 [Compound 217]	> 10000	> 10000 nM	> 10000	> 10000
CCn1cc2c(N3CCNCC3)ccc(C(=O)Nc3cc(F)c4nc(C)c(F)n4c3)c2n1 [Compound 565, N-{3,8-difluoro-2-methylimidazo[1,2-a]pyridin-6-yl}-2-ethyl-4-(piperazin-1-yl) indazole-7-carboxamide; trifluoroacetic acid]	1000 to 10000	1000 to 10000 nM	> 10000	> 10000
CCn1cc2c(N3CCC(N[C@H]4C[C@@H](O)C4)CC3)ccc(C(=O)Nc3cc(F)c4nc(C)cn4c3)c2n1 [Compound 559, 2-ethyl-N-{8-fluoro-2-methylimidazo[1,2-a]pyridin-6-yl}-4-(4-{[(1s,3s)-3-hydroxycyclobutyl]amino}piperidin-1-yl) indazole-7-carboxamide]	100 to 1000	< 100 nM	1000 to 10000	1000 to 10000
Cc1cn2cc(NC(=O)c3ccc(N4CCNCC4)c4nc(C)oc34)cc(F)c2n1 [Compound 140]	1000 to 10000	1000 to 10000 nM	–	–
Cc1cn2nc(NC(=O)c3ccc(N4CCNCC4)c4cc(C)oc34)cc(C)c2n1 [Compound 148]	1000 to 10000	1000 to 10000 nM	1000 to 10000	1000 to 10000
CC1=CC2C(N3CCC(N(C)C)CC3)=CC=C(C(=O)Nc3cc(F)c4nc(C)cn4c3)C2O1 (stereo not shown) [Compound 198]	1000 to 10000	< 100 nM	–	–
CCn1cc2c(N3CCC(N[C@H]4C[C@H](O)C4)CC3)ccc(C(=O)Nc3cc(F)c4nc(C)cn4c3)c2n1 [Compound 560, 2-ethyl-N-{8-fluoro-2-methylimidazo[1,2-a]pyridin-6-yl}-4-(4-{[(1r,3r)-3-hydroxycyclobutyl]amino}piperidin-1-yl) indazole-7-carboxamide]	1000 to 10000	< 100 nM	1000 to 10000	1000 to 10000
CCNC1CCN(c2ccc(C(=O)Nc3cc(F)c4nc(C)cn4c3)c3oc(C)cc23)CC1 [Compound 196]	100 to 1000	< 100 nM	–	–
Cc1cn2cc(NC(=O)c3ccc(N4CCNC(C)C4)c4cc(C)oc34)cc(F)c2n1 (stereo not shown) [Compound 190]	100 to 1000	< 100 nM	100 to 1000	100 to 1000
CCn1cc2c(N3CCC(N)(CC)CC3)cc(F)c(C(=O)Nc3cc(F)c4nc(C)cn4c3)c2n1 [Compound 557, 4-(4-amino-4-ethylpiperidin-1-yl)-2-ethyl-6-fluoro-N-{8-fluoro-2-methylimidazo[1,2-a]pyridin-6-yl}indazole-7-carboxamide]	100 to 1000	< 100 nM	100 to 1000	100 to 1000
Cc1cn2nc(NC(=O)c3ccc(C4CCNCC4)c4cc(C)oc34)cc(C)c2n1 [Compound 118]	100 to 1000	< 100 nM	–	–
CCn1cc2c(N3CCNCC3)ccc(C(=O)Nc3cn4cc(C)nc4c(Oc4ccccc4)n3)c2n1 [Compound 566, 2-ethyl-N-{2-methyl-8-phenoxyimidazo[1,2-a]pyrazin-6-yl}-4-(piperazin-1-yl) indazole-7-carboxamide]	1000 to 10000	100 to 1000 nM	1000 to 10000	1000 to 10000
Cc1cn2cc(NC(=O)c3c(F)cc(N4CC[C@@H](NC5CC5)C4)c4cn(C)nc34)cc(F)c2n1 [Compound 571, 4-[(3R)-3-(cyclopropylamino)pyrrolidin-1-yl]-6-fluoro-N-{8-fluoro-2-methylimidazo[1,2-a]pyridin-6-yl}-2-methylindazole-7-carboxamide]	100 to 1000	< 100 nM	100 to 1000	100 to 1000
Cc1cn2cc(NC(=O)c3ccc(C4CCNCC4)c4cn(C)nc34)cc(F)c2n1 [Compound 208]	100 to 1000	< 100 nM	–	–
Cc1cn2cc(NC(=O)c3ccc(N4CCN(C)C(C)C4)c4cc(C)oc34)cc(F)c2n1 (stereo not shown) [Compound 191]	–	< 100 nM and 100 to 1000 nM	100 to 1000	1000 to 10000
Cc1cn2cc(NC(=O)c3ccc(N4CC(C)(C)NC(C)(C)C4)c4cc(C)oc34)cc(F)c2n1 [Compound 195]	> 10000	1000 to 10000 nM	> 10000	> 10000
Cc1cn2cc(NC(=O)c3ccc(C4CCNCC4)c4ccoc34)cc(F)c2n1 [Compound 149]	1000 to 10000	< 100 nM	1000 to 10000	1000 to 10000
Cc1cn2cc(NC(=O)c3ccc(N4CC[C@@H](NCc5cnc(Cl)nc5)C4)c4cn(C)nc34)cc(F)c2n1 [Compound 573, 4-[(3R)-3-{[(2-chloropyrimidin-5-yl)methyl]amino}pyrrolidin-1-yl]-N-{8-fluoro-2-methylimidazo[1,2-a]pyridin-6-yl}-2-methylindazole-7-carboxamide]	> 10000	1000 to 10000 nM	> 10000	> 10000
Cc1cn2cc(NC(=O)c3ccc(N4CCC(C)(NC(C)C)C4)c4cn(C)nc34)cc(F)c2n1 (stereo not shown) [Compound 574]	> 10000	100 to 1000 nM	> 10000	> 10000
Cc1cn2cc(NC(=O)c3ccc(N4CCN5CCCC5C4)c4cc(C)oc34)cc(F)c2n1 (stereo not shown) [Compound 199]	1000 to 10000	< 100 nM	100 to 1000	100 to 1000
Cc1cn2cc(NC(=O)c3ccc(N4CC[C@@H](N5CCNCC5)C4)c4cn(C)nc34)cc(F)c2n1 [Compound 562, N-{8-fluoro-2-methylimidazo[1,2-a]pyridin-6-yl}-2-methyl-4-[(3R)-3-(piperazin-1-yl)pyrrolidin-1-yl]indazole-7-carboxamide hydrochloride]	> 10000	> 10000 nM	> 10000	> 10000
Cc1cn2cc(NC(=O)c3ccc(N4CCNCC4)c4cn(C)nc34)cc(F)c2n1 [Compound 143, N-{8-fluoro-2-methylimidazo[1,2-a]pyridin-6-yl}-2-methyl-4-(piperazin-1-yl) indazole-7-carboxamide]	< 100	< 100 nM	–	–
CCn1cc2c(N3CC[C@@H](NC)C3)ccc(C(=O)Nc3cc(Cl)c4nc(C)cn4c3)c2n1 [Compound 556, N-{8-chloro-2-methylimidazo[1,2-a]pyridin-6-yl}-2-ethyl-4-[(3R)-3-(methylamino)pyrrolidin-1-yl]indazole-7-carboxamide]	1000 to 10000	1000 to 10000 nM	> 10000	> 10000

From patent US20250154169A1, “COMPOUNDS AND METHODS FOR MODULATING SPLICING” (REMIX THERAPEUTICS INC., priority 2021, published 2025)
